The values below come from ChEMBL document CHEMBL1155757, “Cytotoxicity of Ganoderma lucidum triterpenes” (J Nat Prod, 2001).

By IC50 is commonly meant the point on the concentration scale where inhibition reaches its midpoint. A high value points to weaker potency.

Holding throughout (format): functional, cell-based
A short description of experiment [1]: Cytotoxicity against human CCM2 cells.
A short description of experiment [2]: Cytotoxicity against human HepG2(2.2.15) cells.
Another experiment deals with P388. Briefly: Cytotoxicity against mouse P388 cells.
In another experiment the test system is HepG2. As to the kind of experiment: Cytotoxicity against human HepG2 cells.
The next experiment relates to KB. Briefly: Cytotoxicity against human KB cells.

Regarding `C[C@H](CC(=O)C[C@@H](C)[C@H]1CC(=O)[C@@]2(C)C3=C(C(=O)C[C@]12C)[C@@]1(C)CCC(=O)C(C)(C)[C@@H]1CC3=O)C(=O)O` [GANODERIC ACID E], the IC50 in experiment [1] turned out to be 31200 nM; in experiment [2], 0.105 nM; with P388, 5010 nM; with HepG2, 0.144 nM.

As for `C[C@H](CCC(=O)O)[C@H]1CC(=O)[C@@]2(C)C3=C(C(=O)C[C@]12C)[C@@]1(C)CCC(=O)C(C)(C)[C@@H]1C[C@@H]3O` [LUCIDENIC ACID A], the IC50 came to 27500 nM in experiment [1]; 0.205 nM in experiment [2]; 17000 nM in the experiment on KB; 17 nM with P388; 0.164 nM in the experiment on HepG2.

With `C[C@H](CCC(=O)O)[C@H]1CC(=O)[C@@]2(C)C3=C(C(=O)C[C@]12C)[C@@]1(C)CC[C@H](O)C(C)(C)[C@@H]1C[C@@H]3O` [LUCIDENIC ACID N], the IC50 in experiment [1] stood at 35500 nM; in experiment [2] it was 1.66 nM; with KB, 26700 nM; in the experiment on P388 it was 12 nM; in the experiment with HepG2, 0.206 nM.
